Measurements published in ChEMBL document CHEMBL1128571, “Acylshikonin analogues: synthesis and inhibition of DNA topoisomerase-I” (J Med Chem, 1995).
pIC50: −log10 of the molar value.

Biological target: T1, DNA topoisomerase 1 (Homo sapiens, UniProt P11387)
T1 sequence (P11387 whole entry): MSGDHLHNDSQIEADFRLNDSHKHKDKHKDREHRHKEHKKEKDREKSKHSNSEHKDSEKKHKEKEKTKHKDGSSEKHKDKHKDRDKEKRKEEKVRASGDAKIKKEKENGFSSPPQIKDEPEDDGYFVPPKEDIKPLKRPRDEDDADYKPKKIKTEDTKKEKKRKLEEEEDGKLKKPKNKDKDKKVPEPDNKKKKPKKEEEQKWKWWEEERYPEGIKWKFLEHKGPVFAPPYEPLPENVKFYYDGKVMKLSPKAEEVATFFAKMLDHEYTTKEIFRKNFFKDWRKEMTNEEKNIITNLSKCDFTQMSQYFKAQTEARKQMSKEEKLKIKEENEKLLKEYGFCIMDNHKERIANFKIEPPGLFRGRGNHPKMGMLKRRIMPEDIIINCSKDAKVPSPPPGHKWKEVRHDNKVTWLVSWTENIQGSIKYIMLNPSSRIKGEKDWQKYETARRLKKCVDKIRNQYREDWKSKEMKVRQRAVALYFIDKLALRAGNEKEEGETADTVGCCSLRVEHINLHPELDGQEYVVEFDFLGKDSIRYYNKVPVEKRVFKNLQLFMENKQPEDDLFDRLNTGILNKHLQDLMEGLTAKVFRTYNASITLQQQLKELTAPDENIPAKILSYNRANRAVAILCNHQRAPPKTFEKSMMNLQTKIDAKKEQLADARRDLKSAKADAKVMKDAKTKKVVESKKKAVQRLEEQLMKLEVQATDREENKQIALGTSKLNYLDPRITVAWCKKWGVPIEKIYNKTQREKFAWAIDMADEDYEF
Assay: Inhibitory activity against DNA topoisomerase-1 obtained from Hela cells
Type: cell-based

SMILES | pIC50
CCCCCCCC(=O)O[C@H](CC=C(C)C)C1=CC(=O)c2c(O)ccc(O)c2C1=O | < 3.20
C/C=C/C=C/C(=O)O[C@H](CC=C(C)C)C1=CC(=O)c2c(O)ccc(O)c2C1=O | 3.89
CCCCCCC(=O)O[C@H](CC=C(C)C)C1=CC(=O)c2c(O)ccc(O)c2C1=O | 3.20
CCCCCCCCCCCCCCCC(=O)O[C@H](CC=C(C)C)C1=CC(=O)c2c(O)ccc(O)c2C1=O | < 3.20
CC/C=C/C(=O)O[C@H](CC=C(C)C)C1=CC(=O)c2c(O)ccc(O)c2C1=O | 4.10
CC(C)=CC[C@@H](OC(=O)C=C(C)C)C1=CC(=O)c2c(O)ccc(O)c2C1=O [DIMETHYLACRYLSHIKONIN] | 4.11
C=CCCCCC(=O)O[C@H](CC=C(C)C)C1=CC(=O)c2c(O)ccc(O)c2C1=O | 3.60
CCCCC(=O)O[C@H](CC=C(C)C)C1=CC(=O)c2c(O)ccc(O)c2C1=O | 3.79
CC(C)=CC[C@@H](OC(=O)Cc1ccccc1)C1=CC(=O)c2c(O)ccc(O)c2C1=O | 3.65
CC/C=C/CC(=O)O[C@H](CC=C(C)C)C1=CC(=O)c2c(O)ccc(O)c2C1=O | 3.82
C=CCC/C=C/C(=O)O[C@H](CC=C(C)C)C1=CC(=O)c2c(O)ccc(O)c2C1=O | 3.90
CC(C)=CC[C@@H](OC(=O)c1ccccc1)C1=CC(=O)c2c(O)ccc(O)c2C1=O | 3.82
CCCCCC(=O)O[C@H](CC=C(C)C)C1=CC(=O)c2c(O)ccc(O)c2C1=O | 3.68
CC(C)=CC[C@@H](OC(=O)CCl)C1=CC(=O)c2c(O)ccc(O)c2C1=O | 3.86
CCCC(=O)O[C@H](CC=C(C)C)C1=CC(=O)c2c(O)ccc(O)c2C1=O | 3.84
CCCCCCCCC(=O)O[C@H](CC=C(C)C)C1=CC(=O)c2c(O)ccc(O)c2C1=O | < 3.20

SMILES | pIC50
CC(C)=CC[C@@H](O)C1=CC(=O)c2c(O)ccc(O)c2C1=O [SHIKONIN] | 3.68
CCCCC/C=C/C/C=C/C/C=C/CCCCC(=O)O[C@H](CC=C(C)C)C1=CC(=O)c2c(O)ccc(O)c2C1=O | < 3.20
CCC(=O)O[C@H](CC=C(C)C)C1=CC(=O)c2c(O)ccc(O)c2C1=O | 4.36
CCCCCCCCCCCCCCCCCC(=O)O[C@H](CC=C(C)C)C1=CC(=O)c2c(O)ccc(O)c2C1=O | < 3.20
CCC/C=C/C(=O)O[C@H](CC=C(C)C)C1=CC(=O)c2c(O)ccc(O)c2C1=O | 3.82
CCCCCCCCCC(=O)O[C@H](CC=C(C)C)C1=CC(=O)c2c(O)ccc(O)c2C1=O | < 3.20
CC(C)=CC[C@@H](OC(=O)/C=C(C)/C=C/C=C(C)/C=C/C1=C(C)CCCC1(C)C)C1=CC(=O)c2c(O)ccc(O)c2C1=O | < 3.20
CC(C)=CC[C@@H](OC(=O)\C=C(C)/C=C/C=C(C)/C=C/C1=C(C)CCCC1(C)C)C1=CC(=O)c2c(O)ccc(O)c2C1=O | < 3.20
CC(=O)O[C@H](CC=C(C)C)C1=CC(=O)c2c(O)ccc(O)c2C1=O [ACETYLSHIKONIN] | 4.35
CCCCCCCC/C=C/CCCCCCCC(=O)O[C@H](CC=C(C)C)C1=CC(=O)c2c(O)ccc(O)c2C1=O | < 3.20
CC(C)=CC[C@@H](OC(=O)C(Cl)(Cl)Cl)C1=CC(=O)c2c(O)ccc(O)c2C1=O | 3.94
CC(C)=CC[C@@H](OC(=O)C(C)C)C1=CC(=O)c2c(O)ccc(O)c2C1=O [ISOBUTYLSHIKONIN] | 4.08
CCCCCCCCCCCC(=O)O[C@H](CC=C(C)C)C1=CC(=O)c2c(O)ccc(O)c2C1=O | < 3.20
CCCCC/C=C/C/C=C/CCCCCCCC(=O)O[C@H](CC=C(C)C)C1=CC(=O)c2c(O)ccc(O)c2C1=O | < 3.20
C=CCCC(=O)O[C@H](CC=C(C)C)C1=CC(=O)c2c(O)ccc(O)c2C1=O | 4.40
CC(C)=CC[C@@H](OC(=O)C(c1ccccc1)c1ccccc1)C1=CC(=O)c2c(O)ccc(O)c2C1=O | < 3.20
